B1: N-Cad/CTF2: chicken cytoplasmic domain of N-cadherin (N-Cad/CTF2) inserted into vector pECE, expressed in L cells (protein)
chain: KRRDKERQAKQLLIDPEDDVRDNILKYDEEGGGEEDQDYDLSQLQQPDTVEPDAIKPVGIRRLDERPIHAEPQYPVRSAAPHPGDIGDFINEGLKAADNDPTAPPYDSLLVFDYEGSGSTAGSLSSLNSSSSGGEQDYDYLNDWGPRFKKLADMYGGGDD

What was measured:
E-cadherin = E-cadherin cleavage in staurosporine-treated (apoptotic) A431 cells (Western blot); assay type: cell-based, human
Protocol: Cell Cultures and transfections. Cells were grown in Dulbecco's Modified Eagle Medium (DMEM) plus 10% fetal bovine serum, penicillin and streptomycin in 5% CO2 at 37° C. […] A431 cells were from American Type Culture Collection. […] A431D cells stably transfected with wild-type or GGG759-761AAA mutant E-cadherin were provided by Dr. A. B. Reynolds.
Immunoprecipitations (IPs), immunoblotting, immunofluorescence and confocal microscopy. For WB analysis of cell extracts, cells were washed with PBS and then solubilized in RIPA buffer. For IPs cells were solubilized in Hepes buffer (25 mM Hepes [pH 7.4], 150 mM NaCl, 1× Complete protease inhibitor cocktail, Roche) containing 1% digitonin (IPs with I-R222 and PI-R222 antibodies) or 1% Triton X-100 (IPs with β-catenin and desmoglein antibodies). Following centrifugation at 17,000×g for 10 min, supernatants (1 mg protein) were pre-cleared with protein A- or protein G-agarose (Pierce) for 2 hours. Supernatants were then incubated with antibodies overnight at 4° C. and treated for 2 hours with protein A-agarose (polyclonal antibodies) or with protein G-agarose (monoclonal antibodies). IPs were washed with Hepes buffer containing either 1% digitonin or 1% Triton X-100 and analyzed by SDS-PAGE. Immunofluorescence and confocal microscopy was performed as described by Georgakopoulos et al., (1999). Briefly, cells were plated on 22×22 mm collagen-coated glass coverslips, fixed in cold methanol for 10 min at −20° C. Following washing in TBS (25 mM Tris-HCl [pH 7.4], 150 mM NaCl), cells were treated with 10% goat serum in SuperBlock (Pierce) for 1 hour, incubated overnight with primary antibody (1:100), washed in TBS and then were incubated with species specific Alexa Fluor™ secondary antibody conjugates (Molecular Probes). Cells were washed with TBS, mounted with Prolong antifade kit (Molecular Probes), and photographed on a Leica confocal laser scanning microscope.
Conditional media (20 μl) from A431 cells cultured in the absence or presence of […] and treated with SDS as above were probed on Western blots with anti-E-cadherin ectodomain antibody H108.

c-fos = c-fos mRNA (RT-PCR) and protein (Western blot) in N2a cells; assay type: cell-based, mouse
Protocol: Reverse Transcriptase (RT)-PCR Analysis. Total RNA was extracted from cells using a RNeasy Mini Kit (Qiagen) according to instructions by the manufacturer. Analysis of gene expression was performed using semiquantitative RT-PCR. The following primers were used: 5′-[…]-3′ (SEQ ID NO: 13) and 5′-[…]-3′ (SEQ ID NO: 14) for c-fos; 5′-[…]-3′ (SEQ ID NO: 15) and 5′-[…]-3′ (SEQ ID NO: 16) for gapdh.
N2a cells co-transfected with plasmids pCRE-luc, pFC-PKA, and pSV-β-galactosidase were incubated for 16 hours with DMSO or with L-685,458 ([…]) and CRE-dependent transactivation was measured as described above. Data in FIG. 10A are the mean+/−s.e. of 3 experiments normalized to β-galactosidase activity and protein concentration. *, P<0.05 (Student's t test). Total RNA isolated from N2a cells treated either with DMSO or with L-685,458, was analyzed by semiquantitative RT-PCR using specific primers for c-fos and gapdh. The graph in FIG. 10B represents the relative abundance of c-fos-specific PCR products following quantitation of the mRNA signals shown in the upper panel. Extract from N2a cells treated either with DMSO or with L-685,458, were probed on WBs with anti-c-fos or anti-β-tubulin antibodies. Extract from PS1+/+ or PS1−/− mouse fibroblasts were probed on WBs with either anti-c-fos or anti-β-tubulin antibodies. Extract from PS1+/− or PS1−/− mouse embryonic brains were probed on WBs with anti-c-fos (FIG. 10E, upper panel), anti-b-tubulin (FIG. 10E, middle panel), or anti-PS1/CTF (FIG. 10E, lower panel) antibodies.

CBP/CREB complex = target: T1, CBP/CREB complex (Mus musculus, UniProt P45481); experiment: Electrophoretic mobility shift assay, CREB probe; assay type: biochemical; settings: nuclear extract from cells transfected with 0.2 μg and 0.5 μg pN-Cad/CTF2, FIG. 11C lanes 6-8
T1 construct: full length mouse CBP inserted into vector pRc/RSV; expressed in transfected cells; host or cells: L cells transfected with mouse CBP (pRc/RSV), without or with 0.2 or 0.5 µg pN-Cad/CTF2; nuclear extract
T1 sequence (P45481 whole entry, one chain of several): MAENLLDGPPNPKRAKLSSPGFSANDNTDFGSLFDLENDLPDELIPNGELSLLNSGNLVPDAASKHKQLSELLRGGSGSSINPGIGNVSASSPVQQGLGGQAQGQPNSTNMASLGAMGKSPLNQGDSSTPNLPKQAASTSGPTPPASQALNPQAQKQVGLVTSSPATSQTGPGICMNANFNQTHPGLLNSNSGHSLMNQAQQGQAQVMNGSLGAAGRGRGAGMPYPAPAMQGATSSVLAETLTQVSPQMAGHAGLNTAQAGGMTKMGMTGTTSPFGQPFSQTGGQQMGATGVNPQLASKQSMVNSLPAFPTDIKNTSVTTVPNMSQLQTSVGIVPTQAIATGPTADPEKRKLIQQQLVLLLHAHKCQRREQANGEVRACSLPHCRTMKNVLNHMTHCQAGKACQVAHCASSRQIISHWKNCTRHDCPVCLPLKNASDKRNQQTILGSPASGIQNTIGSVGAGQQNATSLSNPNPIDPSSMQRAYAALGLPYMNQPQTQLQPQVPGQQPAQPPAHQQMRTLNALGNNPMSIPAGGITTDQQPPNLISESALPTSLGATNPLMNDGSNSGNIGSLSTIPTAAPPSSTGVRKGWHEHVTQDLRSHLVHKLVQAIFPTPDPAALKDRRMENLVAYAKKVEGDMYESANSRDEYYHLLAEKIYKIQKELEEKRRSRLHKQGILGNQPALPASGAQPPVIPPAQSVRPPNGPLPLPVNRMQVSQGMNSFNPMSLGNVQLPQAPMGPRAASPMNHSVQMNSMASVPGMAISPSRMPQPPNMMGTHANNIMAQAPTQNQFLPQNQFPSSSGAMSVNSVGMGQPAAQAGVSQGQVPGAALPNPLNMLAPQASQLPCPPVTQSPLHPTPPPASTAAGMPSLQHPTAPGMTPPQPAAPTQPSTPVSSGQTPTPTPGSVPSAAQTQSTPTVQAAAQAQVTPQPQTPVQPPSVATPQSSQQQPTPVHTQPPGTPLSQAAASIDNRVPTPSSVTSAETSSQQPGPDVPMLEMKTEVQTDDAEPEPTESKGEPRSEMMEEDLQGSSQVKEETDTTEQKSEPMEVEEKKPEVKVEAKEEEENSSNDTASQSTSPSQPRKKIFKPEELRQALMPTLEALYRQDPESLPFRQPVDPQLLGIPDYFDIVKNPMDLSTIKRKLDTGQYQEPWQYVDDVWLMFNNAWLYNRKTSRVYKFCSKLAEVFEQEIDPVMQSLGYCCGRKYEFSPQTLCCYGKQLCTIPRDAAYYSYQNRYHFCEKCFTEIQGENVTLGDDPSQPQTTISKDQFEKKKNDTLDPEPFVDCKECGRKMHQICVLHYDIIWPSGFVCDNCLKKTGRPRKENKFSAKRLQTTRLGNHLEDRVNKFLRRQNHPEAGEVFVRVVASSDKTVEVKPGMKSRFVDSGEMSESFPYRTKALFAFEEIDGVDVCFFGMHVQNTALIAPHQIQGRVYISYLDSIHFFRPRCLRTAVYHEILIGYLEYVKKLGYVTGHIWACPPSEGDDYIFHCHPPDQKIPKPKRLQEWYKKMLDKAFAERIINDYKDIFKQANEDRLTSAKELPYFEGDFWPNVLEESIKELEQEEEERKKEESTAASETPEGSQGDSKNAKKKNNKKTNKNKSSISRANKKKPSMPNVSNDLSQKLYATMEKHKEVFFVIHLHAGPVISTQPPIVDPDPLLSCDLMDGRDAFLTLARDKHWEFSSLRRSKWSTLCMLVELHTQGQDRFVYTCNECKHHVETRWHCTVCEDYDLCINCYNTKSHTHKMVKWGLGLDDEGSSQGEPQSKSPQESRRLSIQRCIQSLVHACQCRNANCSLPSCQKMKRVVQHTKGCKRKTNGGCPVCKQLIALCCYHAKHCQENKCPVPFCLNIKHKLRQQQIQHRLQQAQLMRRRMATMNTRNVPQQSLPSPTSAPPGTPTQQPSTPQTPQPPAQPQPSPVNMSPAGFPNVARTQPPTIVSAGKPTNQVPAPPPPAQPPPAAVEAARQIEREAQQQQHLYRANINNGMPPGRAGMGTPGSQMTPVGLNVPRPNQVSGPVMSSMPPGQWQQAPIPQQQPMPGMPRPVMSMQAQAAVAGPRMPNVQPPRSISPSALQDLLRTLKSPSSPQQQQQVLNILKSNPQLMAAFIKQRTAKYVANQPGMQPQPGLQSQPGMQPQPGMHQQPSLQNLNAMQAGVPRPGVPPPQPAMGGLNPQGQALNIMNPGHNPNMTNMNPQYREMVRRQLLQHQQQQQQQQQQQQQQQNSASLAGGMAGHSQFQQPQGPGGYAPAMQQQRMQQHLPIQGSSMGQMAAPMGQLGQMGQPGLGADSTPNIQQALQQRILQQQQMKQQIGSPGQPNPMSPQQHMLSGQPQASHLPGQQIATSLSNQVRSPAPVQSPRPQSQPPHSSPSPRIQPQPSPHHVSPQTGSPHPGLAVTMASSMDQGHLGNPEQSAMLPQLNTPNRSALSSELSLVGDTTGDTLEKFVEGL
Protocol: Electrophoresis mobility shift assay (EMSA). Nuclear extract from CBP-transfected L cells were prepared using the extraction kit N-XTRACT (Sigma) according to manufacturer's instructions. Ten microgram of nuclear extract was used for EMSA performed according to manufacturer's instructions using biotinylated double-stranded oligonucleotide probes containing DNA-binding motifs for CREB or MEF-1 (Panomics). Probes are as follow: CREB, 5′-[…]-3′ (SEQ ID NO: 17); MEF-1,5′-[…]-3′ (SEQ ID NO: 18). Reaction products were separated on 6% polyacrylamide gels in cold TBE buffer (50 mM Tris-HCl, 45 mM Boric acid, 0.5 mM EDTA), transferred to nylon membranes (Immobilon-Ny+, Millipore) and bound probes were immobilized for 30 minutes at 85° C. and visualized by chemiluminescence using streptavidin-HRP conjugate. For antibody supershift analysis, nuclear extract was incubated for 3 hours at 4° C. with […] of 1 B6 antibody prior to probe addition. Where indicated, nuclear extract ([…]) was immunoprecipitated with A-22 antibody ([…]) and protein A-agarose in EBC buffer (50 mM Tris, pH 8, 120 mM NaCl, 0.5% NP40, 1× Complete protease inhibitor cocktail).

Row | Molecule | production of the 33 kDa cadherin fragment (E-Cad/CTF2) (E-cadherin; 30 minutes preincubation with L-685,458 (0.5 μM), then STS 6 hours) | E-Cad/CTF1 level on inhibition of E-Cad/CTF2 (E-cadherin; L-685,458 (0.5 μM), STS 6 hours) | gapdh mRNA and β-tubulin (c-fos; L-685,458, FIGS. 10B and 10C) | c-fos mRNA (c-fos; L-685,458 vs untreated controls, FIG. 10B) | c-fos protein (c-fos; L-685,458 vs untreated controls, FIG. 10C) | formation of a CBP/CREB complex on CRE-containing DNA templates (CBP/CREB complex)
1 | CC(C)C[C@H](NC(=O)[C@H](Cc1ccccc1)C[C@@H](O)[C@H](Cc1ccccc1)NC(=O)OC(C)(C)C)C(=O)N[C@@H](Cc1ccccc1)C(N)=O [L-685,458] | completely blocked | increase in E-Cad/CTF1 | remained unchanged | stimulated | stimulated | –
2 | B1 | – | – | – | – | – | defective in their ability to promote formation of a CBP/CREB complex

— US7884067B2, “Peptides derived from cadherin and methods of use thereof” (Mount Sinai School of Medicine of New York University, priority 2001, dated 2011)
